Reference: US9169260B2 (MERCK SHARP & DOHME CORP., priority 2011, dated 2015)

Target: GST tagged IRAK-4 (Homo sapiens (Human), UniProt Q9NWZ3)
Assay: IRAK-4 Kinase Assay (IMAP fluorescence polarization)
Type: biochemical
Conditions: 100 μM ATP, 30 minutes at 25° C.
How it was run: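 Activity was read by IMAP fluorescence polarization, where phosphopeptide binding to M(III) nanoparticles raises FP. The 30-minute, 25° C reaction used 100 μM ATP, 100 nM RP7030 substrate and 0.5 nM GST-IRAK-4 in pH 7.2 Tris buffer with MgCl2, DTT and Tween 20.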

Sequence of GST tagged IRAK-4 (Q9NWZ3 whole entry): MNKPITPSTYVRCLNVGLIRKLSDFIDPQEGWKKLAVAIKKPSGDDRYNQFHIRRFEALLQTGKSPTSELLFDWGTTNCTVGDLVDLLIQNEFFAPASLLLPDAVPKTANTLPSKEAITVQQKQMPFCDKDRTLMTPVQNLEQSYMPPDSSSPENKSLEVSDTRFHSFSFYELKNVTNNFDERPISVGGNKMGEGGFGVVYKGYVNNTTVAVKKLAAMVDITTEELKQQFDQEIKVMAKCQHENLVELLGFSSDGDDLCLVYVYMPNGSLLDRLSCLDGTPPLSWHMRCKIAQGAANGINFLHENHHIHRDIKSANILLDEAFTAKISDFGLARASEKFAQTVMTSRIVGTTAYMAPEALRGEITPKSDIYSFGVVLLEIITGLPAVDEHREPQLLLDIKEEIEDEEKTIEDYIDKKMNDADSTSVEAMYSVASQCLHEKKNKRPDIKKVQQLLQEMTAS

| SMILES | IC50 (μM) [µM] | IC50 [µM] |
| --- | --- | --- |
| Cc1ccc(-n2nc(C3CN(Cc4ncco4)C3)cc2NC(=O)c2cnn3cccnc23)cc1 [Example 316, N-{1-(4-methylphenyl)-3-[1-(1,3-oxazol-2-ylmethyl)azetidin-3-yl]-1H-pyrazol-5-yl}pyrazolo[1,5-a]pyrimidine-3-carboxamide] | < 1 | – |
| Cc1ccc(-n2nc(CN3CCCC3)cc2NC(=O)c2cnn3cccnc23)cc1 [Example 142, N-(3-(pyrrolidin-1-ylmethyl)-1-(p-tolyl)-1,4-pyrazol-5-yl)pyrazolo[1,5-a]pyrimidine-3-carboxamide] | > 1 | – |
| Cc1ccc(-n2nc(N3CCOCC3)cc2NC(=O)c2cnn3cccnc23)nc1 [Example 202, N-(1-(5-methylpyridin-2-yl)-3-morpholino-1H-pyrazol-5-yl)pyrazolo[1,5-a]pyrimidine-3-carboxamide] | – | < 0.1 |
| Cc1cnc(-n2nc(C3CCN(S(=O)(=O)C4CC4)CC3)cc2NC(=O)c2cnn3cccnc23)nc1 [Example 171, N-(3-(1-(cyclopropylsulfonyl)piperidin-4-yl)-1-(5-methylpyrimidin-2-yl)-1H-pyrazol-5-yl)pyrazolo[1,5-a]pyrimidine-3-carboxamide] | < 1 | – |
| COc1cccc(S(=O)(=O)N2CCC(c3cc(NC(=O)c4cnn5cccnc45)n(-c4ccc(C)cc4)n3)CC2)c1 [Example 385, N-[3-{1-[(3-methoxyphenyl)sulfonyl]piperidin-4-yl}-1-(4-methylphenyl)-1H-pyrazol-5-yl]pyrazolo[1,5-a]pyrimidine-3-carboxamide] | > 1 | – |
| Cc1ccc(-n2nc(C3CCN(CC4CC4)CC3)cc2NC(=O)c2cnn3cccnc23)nc1 [Example 281, N-{3-[1-(cyclopropylmethyl)piperidin-4-yl]-1-(5-methylpyridin-2-yl)-1H-pyrazol-5-yl}pyrazolo[1,5-a]pyrimidine-3-carboxamide] | – | < 0.1 |
| CS(=O)(=O)N1CCC(c2cc(NC(=O)c3cnn4cccnc34)n(-c3ccc(C4CC4)cn3)n2)CC1 [Example 149, N-(1-(5-cyclopropylpyridin-2-yl)-3-(1-(methylsulfonyl)piperidin-4-yl)-1H-pyrazol-5-yl)pyrazolo[1,5-a]pyrimidine-3-carboxamide] | – | < 0.1 |
| Cc1ccc(-n2nc(-c3ccc(S(=O)(=O)N(C)C)cc3C)cc2NC(=O)c2cnn3cccnc23)cc1 [Example 345, N-{3-[4-(dimethylsulfamoyl)-2-methylphenyl]-1-(4-methylphenyl)-1H-pyrazol-5-yl}pyrazolo[1,5-a]pyrimidine-3-carboxamide] | – | < 0.1 |
| Cc1ccc(-n2nc(C3CCC(=O)CC3)cc2NC(=O)c2cnn3cccnc23)cc1 [Example 1, N-(3-(4-oxocyclohexyl)-1-p-tolyl-1H-pyrazol-5-yl)pyrazolo[1,5-a]pyrimidine-3-carboxamide] | – | < 0.1 |
| Cc1ccc(-n2nc(C3CCN(Cc4nccs4)CC3)cc2NC(=O)c2cnn3cccnc23)cc1 [Example 222, N-{1-(4-methylphenyl)-3-[1-(1,3-thiazol-2-ylmethyl)piperidin-4-yl]-1H-pyrazol-5-yl}pyrazolo[1,5-a]pyrimidine-3-carboxamide] | < 1 | – |
| COc1ccc(-n2nc(C3CCN(S(=O)(=O)C4CC4)CC3)cc2NC(=O)c2cnn3cccnc23)cc1 [Example 24, N-(3-(1-(cyclopropylsulfonyl)piperidin-4-yl)-1-(4-methoxyphenyl)-1H-pyrazol-5-yl)pyrazolo[1,5-a]pyrimidine-3-carboxamide] | – | < 0.1 |
| O=C(Nc1cc(C2CNC2)nn1-c1ccc(C2CC2)cc1F)c1cnn2cccnc12 [Example 87, N-(3-(azetidin-3-yl)-1-(4-cyclopropyl-2-fluorophenyl)-1H-pyrazol-5-yl)pyrazolo[1,5-a]pyrimidine-3-carboxamide] | – | < 0.1 |
| Cc1ccc(-n2nc(C3CCNCC3)cc2NC(=O)c2cnn3cc(Br)cnc23)cc1 [Example 107, 6-bromo-N-(3-(piperidin-4-yl)-1-(p-tolyl)-1H-pyrazol-5-yl)pyrazolo[1,5-a]pyrimidine-3-carboxamide] | < 1 | – |
| Cc1ccc(-n2nc(C3CCN(S(=O)(=O)CCc4ccccc4)CC3)cc2NC(=O)c2cnn3cccnc23)cc1 [Example 395, N-[1-(4-methylphenyl)-3-{1-[(2-phenylethyl)sulfonyl]piperidin-4-yl}-1H-pyrazol-5-yl]pyrazolo[1,5-a]pyrimidine-3-carboxamide] | < 1 | – |
| CS(=O)(=O)N1CCC(c2cc(NC(=O)c3cnn4cccnc34)n(-c3ccc(F)cc3F)n2)CC1 [Example 28] | < 1 | – |
| COc1ccc(-n2nc(C3CCNCC3)cc2NC(=O)c2cnn3cccnc23)c(F)c1 [Example 61, N-(1-(2-fluoro-4-methoxyphenyl)-3-(piperidin-4-yl)-1H-pyrazol-5-yl)pyrazolo[1,5-a]pyrimidine-3-carboxamide] | – | < 0.1 |
| Cc1ccc(-n2nc(C3(C)CCN(S(C)(=O)=O)CC3)cc2NC(=O)c2cnn3cccnc23)cc1 [Example 92, N-(3-(4-methyl-1-(methylsulfonyl)piperidin-4-yl)-1-(p-tolyl)-1H-pyrazol-5-yl)pyrazolo[1,5-a]pyrimidine-3-carboxamide] | > 1 | – |

| SMILES | IC50 (μM) [µM] | IC50 [µM] |
| --- | --- | --- |
| Cc1ccc(-n2nc(-c3ccc(S(N)(=O)=O)cc3)cc2NC(=O)c2cnn3cccnc23)cc1 [Example 99, N-(3-(4-sulfamoylphenyl)-1-(p-tolyl)-1H-pyrazol-5-yl)pyrazolo[1,5-a]pyrimidine-3-carboxamide] | – | < 0.1 |
| COc1ccc(-c2cc(NC(=O)c3cnn4cccnc34)n(-c3ccc(C)cc3)n2)cc1 [Example 131, N-(3-(4-methoxyphenyl)-1-(p-tolyl)-1H-pyrazol-5-yl)pyrazolo[1,5-a]pyrimidine-3-carboxamide] | < 1 | – |
| Cc1ccc(-n2nc(C3CCN(C4CCOCC4)CC3)cc2NC(=O)c2cnn3cccnc23)cc1 [Example 206] | – | < 0.1 |
| COc1ccc(-n2nc(C3CCN(S(=O)(=O)C(F)(F)F)CC3)cc2NC(=O)c2cnn3cccnc23)cc1 [Example 30, N-(1-(4-methoxyphenyl)-3-(1-((trifluoromethyl)sulfonyl)piperidin-4-yl)-1H-pyrazol-5-yl)pyrazolo[1,5-a]pyrimidine-3-carboxamide] | > 1 | – |
| Cc1ccc(-n2nc(-c3cncc(CO)c3)cc2NC(=O)c2cnn3cccnc23)cc1 [Example 332, N-{3-[5-(hydroxymethyl)pyridin-3-yl]-1-(4-methylphenyl)-1H-pyrazol-5-yl}pyrazolo[1,5-a]pyrimidine-3-carboxamide] | < 1 | – |
| CCOC(=O)N1CC(N2CCC(c3cc(NC(=O)c4cnn5cccnc45)n(-c4ccc(C)cc4)n3)CC2)C1 [Example 239, ethyl 3-(4-{1-(4-methylphenyl)-5-[(pyrazolo[1,5-a]pyrimidin-3-ylcarbonyl)amino]-1H-pyrazol-3-yl}piperidin-1-yl)azetidine-1-carboxylate] | < 1 | – |
| C[C@H](N)c1ccc(-n2nc(C3CCN(S(C)(=O)=O)CC3)cc2NC(=O)c2cnn3cccnc23)nc1 [Example 164, (S)—N-(1-(5-(1-aminoethyl)pyridin-2-yl)-3-(1-(methylsulfonyl)piperidin-4-yl)-1H-pyrazol-5-yl)pyrazolo[1,5-a]pyrimidine-3-carboxamide] | – | < 0.1 |
| COc1ncc(CN2CC(c3cc(NC(=O)c4cnn5cccnc45)n(-c4ccc(C)cc4)n3)C2)cn1 [Example 317, N-[3-{1-[(2-methoxypyrimidin-5-yl)methyl]azetidin-3-yl}-1-(4-methylphenyl)-1H-pyrazol-5-yl]pyrazolo[1,5-a]pyrimidine-3-carboxamide] | < 1 | – |
| Cc1cnc(-n2nc(C3CCN(S(C)(=O)=O)CC3)cc2NC(=O)c2cnn3cccnc23)nc1 [Example 170, N-(1-(5-methylpyrimidin-2-yl)-3-(1-(methylsulfonyl)piperidin-4-yl)-1H-pyrazol-5-yl)pyrazolo[1,5-a]pyrimidine-3-carboxamide] | – | < 0.1 |
| COc1ccc(-c2cc(NC(=O)c3cnn4cccnc34)n(-c3ccc(C)cc3)n2)cn1 [Example 124, N-(3-(6-methoxypyridin-3-yl)-1-(p-tolyl)-1H-pyrazol-5-yl)pyrazolo[1,5-a]pyrimidine-3-carboxamide] | < 1 | – |
| Cc1ccc(-n2nc(C3CCN(S(=O)(=O)c4ccc(F)cc4F)CC3)cc2NC(=O)c2cnn3cccnc23)cc1 [Example 370, N-[3-{1-[(2,4-difluorophenyl)sulfonyl]piperidin-4-yl}-1-(4-methylphenyl)-1H-pyrazol-5-yl]pyrazolo[1,5-a]pyrimidine-3-carboxamide] | < 1 | – |
| Cc1ccc(-n2nc(C3COCCN3)cc2NC(=O)c2cnn3cccnc23)cc1 (stereo not drawn) [Example 79, N-(3-(morpholin-3-yl)-1-(p-tolyl)-1H-pyrazol-5-yl)pyrazolo[1,5-a]pyrimidine-3-carboxamide] | < 1 | – |
| Cc1ccc(-n2nc(-c3ccc(S(=O)(=O)N4CCN(C)CC4)cc3)cc2NC(=O)c2cnn3cccnc23)cc1 [Example 342, N-[1-(4-methylphenyl)-3-{4-[(4-methylpiperazin-1-yl)sulfonyl]phenyl}-1H-pyrazol-5-yl]pyrazolo[1,5-a]pyrimidine-3-carboxamide] | – | < 0.1 |
| Cc1ccc(-n2nc(C3CCN(S(=O)(=O)c4ccc(F)cc4)CC3)cc2NC(=O)c2cnn3cccnc23)cc1 [Example 366, N-[3-{1[(4-fluorophenyl)sulfonyl]piperidin-4-yl}-1-(4-methylphenyl)-1H-pyrazol-5-yl]pyrazolo[1,5-a]pyrimidine-3-carboxamide] | < 1 | – |
| C[C@@H](N)c1ccc(-n2nc(C3CCN(S(C)(=O)=O)CC3)cc2NC(=O)c2cnn3cccnc23)nc1 [Example 163, (R)—N-(1-(5-(1-aminoethyl)pyridin-2-yl)-3-(1-(methylsulfonyl)piperidin-4-yl)-1H-pyrazol-5-yl)pyrazolo[1,5-a]pyrimidine-3-carboxamide] | – | < 0.1 |
| Cc1ccc(-n2nc(C3(C)CCNCC3)cc2NC(=O)c2cnn3cccnc23)cc1 [Example 91, N-(3-(4-methylpiperidin-4-yl)-1-(p-tolyl)-1H-pyrazol-5-yl)pyrazolo[1,5-a]pyrimidine-3-carboxamide] | < 1 | – |
